Laboratory results reported in US10683273B2, “Compounds as DNA probes, methods and applications thereof” (JAWAHARLAL NEHRU CENTRE FOR ADVANCED SCIENTIFIC RESEARCH, priority 2015, dated 2020).
pIC50: −log10 of the molar value. Read-outs that look alike come from different tables or passages of the source.

What was measured:
(A-T)20 = experiment: Switch-on NIR-fluorescence enhancement with DNA; type: binding
Procedure: (§1) All the chemicals, reagents, single-stranded oligos (dA20, dT20, dG20, dC20), self-complementary oligos {d(ATAT)5, (D1)mix, Drew-AT, Calf-Thymus DNA (CT-DNA), (DM1, DM2, DM3, DM4, DM5, DM6 and DM7)}, RNA, were purchased from Sigma-Aldrich. ^1H and ^13C NMR spectra were recorded on a Bruker AV-400 MHz spectrometer with chemical shifts reported as parts per million (ppm) (in DMSO-d6, tetramethylsilane as an internal standard) at 20° C. UV-vis absorption and emission spectra were measured in quartz cuvettes of 1 cm path length. High resolution mass spectra (HRMS) were obtained on Agilent Technologies 6538 UHD Accurate-Mass Q-TOF LC/MS spectrometer. All biophysical studies (UV-vis, fluorescence and Cirular dichroism) are carried out at the concentration 0-5 μM of probe, volume=500 μL, temperature=25° C. and time of incubation=2 minutes. HeLa cells and MCF7 cells used in the biological studies are obtained from “Molecular reproduction, development and genetics lab, Indian institute of science, Bangalore, India”
(§2) Stock solutions of QCy-DT are prepared in double-distilled (dd) water in the order of 10^−3 M and stored at about −10° C. DNA stock solutions are prepared by dissolving oligo samples in double-distilled (dd) water in the order of 10^−4 M. Solutions of DNA duplexes are prepared in Tris-HCl (100 mM, pH=7.4) buffer solution by mixing complementary DNA strands in equimolar concentration. This solution is then subjected to annealing by heating up to about 85° C. for about 15 minutes, subsequently cooled to room temperature for about 7 hours and stored in the refrigerator (about 4° C.) for about 4 hours.
(§3) The UV-vis absorption and emission spectra are recorded on Agilent Technologies Cary series UV-vis-NIR absorbance and Cary eclipse fluorescence spectrophotometers, respectively. Thermal denaturation (UV-melting) studies are carried out on Cary 5000 UV-vis-NIR spectrophotometer equipped with Cary temperature controller in the range of 10° C. to 90° C. with a ramp rate of 1° C./min. The variable temperature/wavelength mode is used. Absorption is monitored at 260 nm with regular 5° C. intervals. Melting temperatures (Tm) of DNA samples are calculated from the first derivatives of the absorption vs. temperature curves (thermal denaturation or melting curves) obtained by monitoring at 260 nm.
(§4) For this, poly AT-duplexes such as (A-T)20, self-complementary d(ATAT)5, Drew-AT (14 base pair self-complementary sequence with 6AT-base pairs in central core), poly GC-duplex (G-C)20, (D1)mix, which is a 16 base pair long self-complementary duplex and CT-DNA as mixed AT/GC duplexes is chosen (Table 2). […] QCy-DT experience hydrophobic environment upon binding to minor groove of AT-rich duplex DNA which prevents aromatic π-stacking interactions with base pairs and other molecules of the probe that led to the hyperchromicity in the absorbance maximum of QCy-DT. […] Further, the absorption and emission properties of QCy-DT in the presence of poly AT- and GC-duplexes are studied. […] Further, we also studied the emission behavior of QCy-DT in presence of CT-DNA, (D1)mix, single-stranded (ss) DNAs and RNA. […] To ascertain the switch-on behavior of QCy-DT in the presence of AT-rich DNA duplex, viscosity measurements are performed by increasing the glycerol content in buffer solution. […] Consequently, the observed strong fluorescence enhancement in the presence of AT-rich DNA duplexes is the result of restriction of intramolecular rotation of probe QCy-DT in the constrained environments of DNA, which also facilitates the desolvation (water molecules) around QCy-DT in the hydrophobic environment of DNA duplex (FIG. 1c).

(D1)mix = experiment: Switch-on NIR-fluorescence enhancement with DNA; type: binding
Procedure: as §1, §2, §3, §4

(G-C)20 = experiment: Switch-on NIR-fluorescence enhancement with DNA; type: binding; conditions: QCy-DT 2 μM, (G-C)20 4 μM, Tris-HCl
Procedure: as §1, §2, §3, §4

Drew-AT = experiment: Switch-on NIR-fluorescence enhancement with DNA; type: binding
Procedure: as §1, §2, §3, §4

[1] = tested on: single-stranded (ss) DNAs; experiment: Switch-on NIR-fluorescence enhancement with DNA; type: binding; conditions: ssDNAs
Procedure: as §1, §2, §3, §4

MCF-7 cells = experiment: Cell viability assay (MTT); type: cell-based; conditions: MCF-7, up to 8 μM, about 72 hours
Procedure: MCF-7 cells (4×10^3 cells/well) are seeded in 96-well plate (flat bottom) and cultured for 12 hours. Following this, cells are treated with […] of probe QCy-DT respectively for about 72 hours and further incubated in a humidified CO2 incubator at about 37° C. 20 μL of MTT (5 mg/mL in PBS) solution is added to each well and incubated for about 4 hours at about 37° C. in the CO2 incubator. DMSO (200 μL) is then added to each well. After about 1 hour, absorbance is taken in ELISA microplate reader at 570 nm wavelength.
Following formula is applied for the calculation of percentage of cell viability (CV): CV=(absorbance of the experimental samples/absorbance of the control sample)×100
The data is normalized with control and plotted with mean and standard error.

P. falciparum = experiment: IC50 determination in malaria parasites; type: cell-based, Plasmodium falciparum; conditions: for pIC50: Plasmodium falciparum
Procedure: P. falciparum strain 3D7 is cultured. Briefly, malaria parasites are cultured in human erythrocytes in T75 flasks with RPMI 1640 (Gibco) supplemented with 10 μg/mL gentamicin (Sigma), 50 μg/mL ampicillin, 0.2% NaHCO3 (Sigma), 0.5% albumax (Invitrogen) and Hypoxanthine (27 mg/L). The culture is maintained under standard conditions (37° C. in 90% nitrogen, 5% CO2, and 5% O2). For synchronization of the parasites, ring-staged parasites are treated with 5% sorbitol at 37° C. for about 5-10 min, followed by washing with pre-warmed incomplete medium twice, and placed back in complete medium. QCy-DT probe (resuspended in Mili-Q water) is added to parasites (25±2 hpi) at a final concentration of 0.5 μM and the parasites are incubated for 30 min at 37° C. Following treatment fluorescence imaging of the parasites is performed using Carl Zeiss AXIO Imager Z1 and the software used for image capturing was AxioVision Rel. 4.8. To determine the IC50 value of QCy-DT against P. falciparum, parasites are synchronized in ring stage (˜12±2 h) and parasitemia is maintained at ˜1%, followed by treatment with 0, 0.5, 1, 2 and 4 μM of QCy-DT at early trophozoite stage (˜20±2 h). After about 40 hours of the QCy-DT treatment, Geimsa stained slides are prepared, and parasitemia is counted. At least six homogenous microscopic fields are counted for each treatment, and each experiment is done in triplicates. The graphs are plotted for the percentage of parasitemia (at 0 time point and at 40 hours after incubation with QCy-DT) against QCy-DT concentration, with mean and standard error.

**Q.** How did the fluorescence enhancement ((A-T)20; QCy-DT 2 μM, (A-T)20 4 μM, Tris-HCl) turn out when `C[n+]1c(/C=C/c2ccc(O)c(/C=C/c3sc4ccccc4[n+]3C)c2)sc2ccccc21` [QCy-DT, quinone cyanine-dithiazole] was run?
**A.** The fluorescence enhancement was roughly 250 fold.

**Q.** What about the “difference in fluorescence enhancement, (A-T)20 compared to d(ATAT)5” value ((A-T)20; ratio (A-T)20 / d(ATAT)5) of the same compound?
**A.** The value was roughly 4 fold.

**Q.** And the fluorescence enhancement ((D1)mix)?
**A.** The fluorescence enhancement was roughly 55 fold.

**Q.** And the fluorescence enhancement ((G-C)20)?
**A.** Its fluorescence enhancement is 8 fold.

**Q.** And the fluorescence enhancement (Drew-AT; QCy-DT 2 μM, Drew-AT 4 μM, λem=650 nm, vs probe alone)?
**A.** The fluorescence enhancement was roughly 200 fold.

**Q.** And the “fluorescence enhancement with 5′-AAATTT-3′ core, higher than 5′-AATT-3′ core” value (Drew-AT; ratio 5′-AAATTT-3′ / 5′-AATT-3′)?
**A.** Its value is roughly 4 fold.

**Q.** What about the fluorescence enhancement [1] of the same compound?
**A.** Its fluorescence enhancement is roughly 2 fold.

**Q.** What about the cell viability (MCF-7 cells) of the same compound?
**A.** The cell viability was greater than 76%.

**Q.** And the parasite stage progression (P. falciparum; 8 μM)?
**A.** The parasite stage progression was “arrested in the trophozoite stage”.

**Q.** And the pIC50 (P. falciparum; against malarial parasites, as printed in the description, read-out: inhibitory concentration (IC50))?
**A.** The pIC50 was greater than 5.40.

**Q.** And the pIC50 (P. falciparum; early trophozoite stage, 40 h treatment, parasitemia count, read-out: IC50)?
**A.** The pIC50 was greater than 5.40.
